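How tested: cells in 96-well plates exposed to compound for 48 hours at five concentrations. At the GI50, growth is halved.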 Activity calls are given as the source filed them. Rule as the data show it: active = GI50 up to about 1.1 µM and inactive = higher.

What all share (experiment): NCI-60 cell line screen, 48 h
Test [1] relates to 786-0.
In test [2] the test system is CAKI-1.
The test system of test [3] is COLO 205.
In test [4] the test system is HOP-92.
For test [5], the system named is HT-29.
Test [6] deals with M14.
For test [7], the system named is NCI-H23.
Test [8] deals with NCI-H522.
Test [9] concerns OVCAR-4.
For test [10], the system named is OVCAR-8.
For test [11], the system named is RPMI-8226.
Test [12] deals with SK-OV-3.
For test [13], the system named is SR.
The subject of test [14] is SW-620.
Test [15] relates to U-251.
For test [16], the system named is UACC-257.
The test system of test [17] is A498.

Consider `CCOC(=O)C1=C(NC(C)(C)C)OCC1=O`, for which the GI50 in [1], in test [2], in test [3], in test [4], in test [5] and in test [6] was > 100 µM (inactive) throughout. The GI50 in test [7] is 92.7 µM (inactive); in [8] it was > 100 µM (inactive); in test [9], > 100 µM (inactive); in test [10] it was > 100 µM (inactive); in test [11], > 100 µM (inactive); in test [12], > 100 µM (inactive). Moreover, the GI50 in test [13], in test [14], in test [15] and in test [16] was > 100 µM (inactive) each time.
As to `O=C1NC2C(O)CCCCC2C12CCCCC2` (configuration not stated), the GI50 in test [1], in [17], in test [2], in [3], in [4] and in [5] was > 100 µM (inactive) in each case. The GI50 in test [6], in test [7], in test [8], in [9], in [10] and in [11] was > 100 µM (inactive) throughout. Further, the GI50 in test [12], in test [14], in test [15] and in test [16] was > 100 µM (inactive) each time.
Regarding `CCC1OCCN1C(C)C` (configuration not stated), the GI50 in test [1] was > 100 µM (inactive); in [17], > 100 µM (inactive); in test [3], > 100 µM (inactive); in test [7] it was 32.9 µM (inactive); in [8], 85.5 µM (inactive); in [10] it was > 100 µM (inactive). Besides, the GI50 in test [11] was 60 µM (inactive); in test [12], > 100 µM (inactive); in [13] it was > 100 µM (inactive); in test [14], > 100 µM (inactive); in [15], > 100 µM (inactive); in test [16] it was 97.5 µM (inactive).
Regarding `CC(N)C(=O)OCN1C(=O)C2C3C=CC(C2C1=O)C1C2C(=O)N(COC(=O)C(C)N)C(=O)C2C31` (configuration not stated), the GI50 is 20.8 µM (inactive) in [1]; 72.6 µM (inactive) in test [2]; 19.4 µM (inactive) in test [3]; 57.5 µM (inactive) in test [4]; 34.6 µM (inactive) in [5]; 20.9 µM (inactive) in test [6]. Moreover, the GI50 is 22.1 µM (inactive) in test [7]; 20.8 µM (inactive) in [9]; 22.1 µM (inactive) in test [10]; 23.9 µM (inactive) in [11]; 53.1 µM (inactive) in test [12]; 5.57 µM (inactive) in [13]. In addition, the values for the GI50 in test [14], in test [15] and in test [16] were 24.4 µM (inactive), 24.5 µM (inactive) and 31.4 µM (inactive), respectively.
On to `CC(C)(C)C1=CC(=NNC(=S)NCc2ccccc2)C=C(C(C)(C)C)C1=O`, for which the GI50 in test [1] was 55.6 µM (inactive); in test [17] it was 77.4 µM (inactive); in test [3], 51.5 µM (inactive); in test [5], 73.1 µM (inactive); in test [6] it was > 100 µM (inactive); in test [7], 64 µM (inactive). The GI50 in [9] was 90.2 µM (inactive); in [10], > 100 µM (inactive); in test [11], > 100 µM (inactive); in test [13], > 100 µM (inactive); in test [14] it was > 100 µM (inactive); in [15] it was 94.2 µM (inactive). Besides, the GI50 in test [16] was 91.6 µM (inactive).
Regarding `O=C1CCC2(c3ccccc3)Nc3ccccc3N12` (configuration not stated), the GI50 in test [1], in test [17], in test [2], in [3], in [4] and in test [5] was > 100 µM (inactive) in each case. Also, the GI50 in [6], in test [7], in test [8], in test [9], in test [10] and in test [11] was > 100 µM (inactive) each time. Further, the GI50 in test [14], in test [15] and in [16] was > 100 µM (inactive) in each case.
Regarding `C=C1C2CCCC1C1(S(C)(=O)=O)CCCCC21O` (configuration not stated), the GI50 in [1] is > 100 µM (inactive); in test [2] it was > 100 µM (inactive); in test [3] it was > 100 µM (inactive); in [4] it was < 0.01 µM (active); in test [5], > 100 µM (inactive); in test [6] it was > 100 µM (inactive). Moreover, the GI50 in test [7], in [8], in test [9], in [10], in [11] and in test [12] was > 100 µM (inactive) throughout. For the same molecule, the GI50 in test [13], in test [14], in [15] and in test [16] was > 100 µM (inactive) in each case.
Regarding `COc1ccc(OC)c2c(C(=O)O)c(C(C)c3ccccc3)ccc12` (configuration not stated), the GI50 in test [1], in test [17], in [2], in test [3], in test [5] and in test [6] was > 100 µM (inactive) in each case. The GI50 in [7], in [8], in [9], in test [10], in [12] and in test [13] was > 100 µM (inactive) each time. The GI50 in test [14] was > 100 µM (inactive); in [15], 91.4 µM (inactive); in [16] it was > 100 µM (inactive).
With `COc1cc2c(c(OC)c1OC)-c1ccc(SC)c(=O)cc1[C@@H](NC(=O)c1ccc(Cl)cc1)CC2`, the GI50 in test [1], in test [17], in test [3], in [5], in [6] and in test [7] was < 0.01 µM (active) in each case. Further, the GI50 in [9], in test [10], in test [11], in test [13], in test [14] and in test [15] was < 0.01 µM (active) each time. In test [16], the GI50 was < 0.01 µM (active).
With `Cc1cc2c(=O)cc(-c3ccc(C(=O)O)cc3)oc2c(C(=O)O)c1C`, the GI50 in test [1], in test [2], in [3], in test [4], in test [5] and in test [6] was > 100 µM (inactive) in each case. For the same molecule, the GI50 in test [7], in test [8], in test [9], in test [10], in test [11] and in test [12] was > 100 µM (inactive) throughout. Besides, the GI50 in test [13], in [14], in test [15] and in [16] was > 100 µM (inactive) each time.

For the origin of these results see ChEMBL document CHEMBL1201862, “PubChem BioAssay data set” (2004).
